From BindingDB's records for doi:10.1021/jm500308c (University Jena, 2014)

Legend:
[1] = target: Signal transducer and activator of transcription 3 (Homo sapiens, UniProt P40763); experiment: Inhibition of STAT3 transcriptional activity in human HaCaT cells after 6 hrs by luciferase reporter gene assay
[2] = target: T1, Nuclear factor erythroid 2-related factor 2 (Homo sapiens, UniProt Q16236); experiment: Activation of Nrf2 transcriptional activity in human LNCaP cells after 6 hrs by luciferase reporter gene assay relative to tert-butylhydroquinone
T1 sequence (Q16236 whole entry): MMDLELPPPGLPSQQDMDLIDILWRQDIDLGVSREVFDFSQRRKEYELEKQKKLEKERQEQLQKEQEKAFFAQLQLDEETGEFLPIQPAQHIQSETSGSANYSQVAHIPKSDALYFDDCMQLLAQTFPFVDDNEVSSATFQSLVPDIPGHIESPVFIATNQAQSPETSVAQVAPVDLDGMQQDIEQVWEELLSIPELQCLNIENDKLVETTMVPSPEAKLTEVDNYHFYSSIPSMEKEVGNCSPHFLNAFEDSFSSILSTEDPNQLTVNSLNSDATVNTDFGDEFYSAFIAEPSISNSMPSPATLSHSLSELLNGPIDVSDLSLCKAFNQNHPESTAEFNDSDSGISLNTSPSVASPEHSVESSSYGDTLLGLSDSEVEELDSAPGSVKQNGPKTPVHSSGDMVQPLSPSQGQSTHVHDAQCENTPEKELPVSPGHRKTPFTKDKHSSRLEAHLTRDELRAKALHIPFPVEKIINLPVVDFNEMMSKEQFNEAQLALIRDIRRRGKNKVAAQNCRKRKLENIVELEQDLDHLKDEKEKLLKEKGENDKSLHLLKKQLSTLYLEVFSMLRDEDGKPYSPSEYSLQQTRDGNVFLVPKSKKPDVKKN

Chain of Signal transducer and activator of transcription 3 (P40763 whole entry): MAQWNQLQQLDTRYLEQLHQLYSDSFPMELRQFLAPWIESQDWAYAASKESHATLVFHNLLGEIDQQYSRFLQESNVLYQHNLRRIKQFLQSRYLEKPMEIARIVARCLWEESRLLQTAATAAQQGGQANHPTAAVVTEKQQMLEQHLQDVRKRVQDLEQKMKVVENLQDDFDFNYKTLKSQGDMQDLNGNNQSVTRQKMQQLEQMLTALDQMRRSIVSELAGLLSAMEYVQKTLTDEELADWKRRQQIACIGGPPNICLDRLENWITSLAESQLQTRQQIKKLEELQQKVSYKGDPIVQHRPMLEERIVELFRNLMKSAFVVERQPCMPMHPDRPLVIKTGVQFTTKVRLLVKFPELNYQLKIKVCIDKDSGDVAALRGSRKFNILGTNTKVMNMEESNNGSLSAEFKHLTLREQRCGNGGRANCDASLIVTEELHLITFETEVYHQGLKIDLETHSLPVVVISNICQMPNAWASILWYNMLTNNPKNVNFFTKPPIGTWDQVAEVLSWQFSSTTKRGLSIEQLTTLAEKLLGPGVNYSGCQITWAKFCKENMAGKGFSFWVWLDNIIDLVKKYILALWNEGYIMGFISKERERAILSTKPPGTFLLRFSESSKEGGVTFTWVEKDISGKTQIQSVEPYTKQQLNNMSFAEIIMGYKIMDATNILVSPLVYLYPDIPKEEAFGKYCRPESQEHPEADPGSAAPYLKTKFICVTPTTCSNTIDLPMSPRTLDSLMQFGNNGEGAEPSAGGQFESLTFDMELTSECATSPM

IC50 [1] [µM]	EC50 [2] [µM]	Structure (SMILES)
22.4	–	COc1cc(/C=C/C(=O)/C=C/c2cc(CC=C(C)C)c(O)c(OC)c2)cc(CC=C(C)C)c1O
> 50	–	COc1cc(/C=C/c2cc(/C=C/c3cc(CC=C(C)C)c(O)c(OC)c3)[nH]n2)cc(CC=C(C)C)c1O
–	9.9	COc1cc(C=CC(=O)CC(=O)C=Cc2ccc(O)c(OC)c2)ccc1O
> 50	–	COc1cc(CCC(=O)CC(=O)CCc2ccc(O)c(OC)c2)ccc1O [1,7-Bis-(4-hydroxy-3-methoxy-phenyl)-heptane-3,5-dione]
35.7	–	COc1cc(/C=C/C(=O)CC(=O)c2ccc(O)c(OC)c2)ccc1O
16.2	–	COc1cc(/C=C/c2cc(/C=C/c3ccc(O)c(OC)c3)[nH]n2)ccc1O [4-(2-(5-(4-hydroxy-3-methoxystyryl)-1H-pyrazol-3-yl)vinyl)-2-methoxyphenol]

The remaining lines, values behind:

Structure (SMILES)	IC50 [1] [µM]	EC50 [2] [µM]
COc1cc(/C=C/c2cc(-c3ccc(O)c(OC)c3)[nH]n2)ccc1O	18.2	–
COc1cc(/C=C/C(=O)/C=C/c2cc(F)c(O)c(OC)c2)cc(F)c1O	19.4	3.1
COc1cc(/C=C/C(=O)CC(=O)/C=C/c2cc(F)c(O)c(OC)c2)cc(F)c1O	15.6	8.6
COc1cc(/C=C/C(=O)/C=C/c2ccc(O)c(OC)c2)ccc1O [(1E,4E)-1,5-Bis-(4-hydroxy-3-methoxy-phenyl)-penta-1,4-dien-3-one]	6	0.9
COc1cc(/C=C/C(=O)CC(=O)/C=C/c2cc(CC=C(C)C)c(O)c(OC)c2)cc(CC=C(C)C)c1O	> 50	–
COc1cc(CCC(=O)CC(=O)CCc2cc(CCC(C)C)c(O)c(OC)c2)cc(CCC(C)C)c1O	> 50	–
